The results in this text go back to patent publication US20160106814A1, “Novel Oral Pharmaceutical Composition for Treatment of Diabetes” (NOVO NORDISK A/S, priority 2013, published 2016).

*1 amine or outer side, *2 acyl side, *3 side chain or, on linkers, in order; H or OH if unused. Where a SMILES comes first, the peptide text is derived from it. Side-chain parts run from the residue outwards. [ ]: non-standard residue; d: D form. The star is where a group is joined. Decanoyl(10-(4-HOOC-PhO)) = O=C(O)c1ccc(OCCCCCCCCCC(=O)*)cc1; γGlu = O=C(O)[C@H](CCC(=O)[*:2])N[*:1]; C14 diacid = O=C(O)CCCCCCCCCCCCC(=O)*; AEEA = NCCOCCOCC(=O)O; Aib = CC(C)(N)C(=O)O

The series is described as follows: Transport of GLP-1 peptide across mucus-producing E12 cell monolayers in the presence of sodium caprate and BBI. The settings on record: pH 7.4, apical to basolateral. In kind it is in vitro ADME. The procedure:
Buffer was then removed and the experiment initiated. […] Receiver samples (200 μl) were taken every 15 min.
In all samples with GLP-1 peptide and mannitol, the concentration of GLP-1 peptide was determined using a LOCI assay (or LC-MS assay) and scintillation counter, respectively.

Where [1] appears, read: 100 μM GLP-1 peptide + 13 mM sodium caprate + 0.2% BBI.
Where [2] appears, read: 100 μM GLP-1 peptide + 13 mM sodium caprate, without BBI.

A word on the Papp A→B: it is the apparent permeability from the apical to the basolateral side of a cell layer. As to `CC[C@H](C)[C@H](NC(=O)[C@H](Cc1ccccc1)NC(=O)[C@H](CCC(=O)O)NC(=O)[C@H](CCCCNC(=O)COCCOCCNC(=O)COCCOCCNC(=O)CC[C@H](NC(=O)CCCCCCCCCCCCC(=O)O)C(=O)O)NC(=O)[C@H](C)NC(=O)[C@H](C)NC(=O)[C@H](CCC(N)=O)NC(=O)[C@H](CCC(=O)O)NC(=O)[C@H](CCC(=O)O)NC(=O)[C@H](CC(C)C)NC(=O)[C@H](Cc1ccc(O)cc1)NC(=O)[C@H](CCCCNC(=O)COCCOCCNC(=O)COCCOCCNC(=O)CC[C@H](NC(=O)CCCCCCCCCCCCC(=O)O)C(=O)O)NC(=O)[C@H](CO)NC(=O)[C@@H](NC(=O)[C@H](CC(=O)O)NC(=O)[C@H](CO)NC(=O)[C@@H](NC(=O)[C@H](Cc1ccccc1)NC(=O)[C@@H](NC(=O)CNC(=O)[C@H](CCC(=O)O)NC(=O)C(C)(C)NC(=O)[C@@H](N)Cc1c[nH]cn1)[C@@H](C)O)[C@@H](C)O)C(C)C)C(=O)N[C@@H](C)C(=O)N[C@@H](Cc1c[nH]c2ccccc12)C(=O)N[C@@H](CC(C)C)C(=O)N[C@H](C(=O)N[C@@H](CCCNC(=N)N)C(=O)NCC(=O)N[C@@H](CCCNC(=N)N)C(=O)NCC(=O)O)C(C)C` [GLP-1 peptide 5, N{Epsilon-18}-[2-[2-[2-[[2-[2-[2-[[(4S)-4-carboxy-4-(13-carboxytridecanoylamino)butanoyl]amino]ethoxy]ethoxy]acetyl]amino]ethoxy]ethoxy]acetyl], —N{Epsilon-26}-[2-[2-[2-[[2-[2-[2-[[(4S)-4-carboxy-4-(13-carboxytridecanoylamino)butanoyl]-amino]ethoxy]ethoxy]acetyl]amino]ethoxy]ethoxy]acetyl]-[Aib8,Lys18,Glu22,Arg34]-GLP-1-(7-37)-peptide] (H-H[Aib]EGTFTSDVSK([AEEA-AEEA-γGlu-C14 diacid])YLEEQAAK([AEEA-AEEA-γGlu-C14 diacid])EFIAWLVRGRG-OH), the Papp A→B was found to be 0.592 ×10⁻⁶ cm/s under setting [1] and 0.314 ×10⁻⁶ cm/s under setting [2].

For the compound `CC[C@H](C)[C@H](NC(=O)[C@H](Cc1ccccc1)NC(=O)[C@H](CCC(=O)O)NC(=O)[C@H](CCCCNC(=O)COCCOCCNC(=O)COCCOCCNC(=O)CC[C@H](NC(=O)CCCCCCCCCOc1ccc(C(=O)O)cc1)C(=O)O)NC(=O)[C@H](C)NC(=O)[C@H](C)NC(=O)[C@H](CCC(N)=O)NC(=O)[C@H](CCC(=O)O)NC(=O)[C@H](CCC(=O)O)NC(=O)[C@H](CC(C)C)NC(=O)[C@H](Cc1ccc(O)cc1)NC(=O)[C@H](CCCCNC(=O)COCCOCCNC(=O)COCCOCCNC(=O)CC[C@H](NC(=O)CCCCCCCCCOc1ccc(C(=O)O)cc1)C(=O)O)NC(=O)[C@H](CO)NC(=O)[C@@H](NC(=O)[C@H](CC(=O)O)NC(=O)[C@H](CO)NC(=O)[C@@H](NC(=O)[C@H](Cc1ccccc1)NC(=O)[C@@H](NC(=O)CNC(=O)[C@H](CCC(=O)O)NC(=O)C(C)(C)NC(=O)[C@@H](N)Cc1c[nH]cn1)[C@@H](C)O)[C@@H](C)O)C(C)C)C(=O)N[C@@H](C)C(=O)N[C@@H](Cc1c[nH]c2ccccc12)C(=O)N[C@@H](CC(C)C)C(=O)N[C@H](C(=O)N[C@@H](CCC(N)=O)C(=O)NCC(=O)N[C@@H](CCCNC(=N)N)C(=O)NCC(=O)O)C(C)C` [GLP-1 peptide 2, N{Epsilon-18}-[2-[2-[2-[[2-[2-[2-[[(4S)-4-carboxy-4-[10-(4-carboxyphenoxy)-decanoylamino]butanoyl]amino]ethoxy]ethoxy]acetyl]amino]ethoxy]ethoxy]acetyl], N{Epsilon-26}-[2-[2-[2-[[2-[2-[2-[[(4S)-4-carboxy-4-[10-(4-carboxyphenoxy)decanoylamino]butanoyl]-amino]ethoxy]ethoxy]acetyl]amino]ethoxy]ethoxy]acetyl]-[Aib8,Lys18,Glu22,Gln34]-GLP-1-(7-37)-peptide], the Papp A→B under setting [1] is 0.438 ×10⁻⁶ cm/s and the Papp A→B under setting [2] is 0.389 ×10⁻⁶ cm/s.

On to `CC[C@H](C)[C@H](NC(=O)[C@H](Cc1ccccc1)NC(=O)[C@H](CCC(=O)O)NC(=O)[C@H](CCCCNC(=O)COCCOCCNC(=O)COCCOCCNC(=O)CC[C@H](NC(=O)CCCCCCCCCOc1ccc(C(=O)O)cc1)C(=O)O)NC(=O)[C@H](C)NC(=O)[C@H](C)NC(=O)[C@H](CCC(N)=O)NC(=O)CNC(=O)[C@H](CCC(=O)O)NC(=O)[C@H](CC(C)C)NC(=O)[C@H](Cc1ccc(O)cc1)NC(=O)[C@H](CO)NC(=O)[C@H](CO)NC(=O)[C@@H](NC(=O)[C@H](CC(=O)O)NC(=O)[C@H](CO)NC(=O)[C@@H](NC(=O)[C@H](Cc1ccccc1)NC(=O)[C@@H](NC(=O)CNC(=O)[C@H](CCC(=O)O)NC(=O)C(C)(C)NC(=O)[C@@H](N)Cc1c[nH]cn1)[C@@H](C)O)[C@@H](C)O)C(C)C)C(=O)N[C@@H](C)C(=O)N[C@@H](Cc1c[nH]c2ccccc12)C(=O)N[C@@H](CC(C)C)C(=O)N[C@H](C(=O)N[C@@H](CCCNC(=N)N)C(=O)NCC(=O)N[C@@H](CCCNC(=N)N)C(=O)N[C@@H](CCCCNC(=O)COCCOCCNC(=O)COCCOCCNC(=O)CC[C@H](NC(=O)CCCCCCCCCOc1ccc(C(=O)O)cc1)C(=O)O)C(=O)O)C(C)C` [GLP-1 peptide 9, N{Epsilon-26}-[2-[2-[2-[[2-[2-[2-[[(4S)-4-carboxy-4-[10-(4-carboxyphenoxy)-decanoylamino]butanoyl]amino]ethoxy]ethoxy]acetyl]amino]ethoxy]ethoxy]acetyl], N{Epsilon-37}-[2-[2-[2-[[2-[2-[2-[[(4S)-4-carboxy-4-[10-(4-carboxyphenoxy)decanoylamino]butanoyl]-amino]ethoxy]ethoxy]acetyl]amino]ethoxy]ethoxy]acetyl]-[Aib8,Arg34, Lys37]-GLP-1-(7-37)-peptide], for which the Papp A→B was 0.379 ×10⁻⁶ cm/s under setting [1] and 0.272 ×10⁻⁶ cm/s under setting [2].

For `CC[C@H](C)[C@H](NC(=O)[C@H](Cc1ccccc1)NC(=O)[C@H](CCC(=O)O)NC(=O)[C@H](CCCCNC(=O)COCCOCCNC(=O)COCCOCCNC(=O)CC[C@H](NC(=O)CCCCCCCCCOc1ccc(C(=O)O)cc1)C(=O)O)NC(=O)[C@H](C)NC(=O)[C@H](C)NC(=O)[C@H](CCC(N)=O)NC(=O)[C@H](CCC(=O)O)NC(=O)[C@H](CCC(=O)O)NC(=O)[C@H](CC(C)C)NC(=O)[C@H](Cc1ccc(O)cc1)NC(=O)[C@H](CCCCNC(=O)COCCOCCNC(=O)COCCOCCNC(=O)CC[C@H](NC(=O)CCCCCCCCCOc1ccc(C(=O)O)cc1)C(=O)O)NC(=O)[C@H](CO)NC(=O)[C@@H](NC(=O)[C@H](CC(=O)O)NC(=O)[C@H](CO)NC(=O)[C@@H](NC(=O)[C@H](Cc1ccccc1)NC(=O)[C@@H](NC(=O)CNC(=O)[C@H](CCC(=O)O)NC(=O)C(C)(C)NC(=O)[C@@H](N)Cc1c[nH]cn1)[C@@H](C)O)[C@@H](C)O)C(C)C)C(=O)N[C@@H](C)C(=O)N[C@@H](Cc1c[nH]c2ccccc12)C(=O)N[C@@H](CC(C)C)C(=O)N[C@H](C(=O)N[C@@H](CCCNC(=N)N)C(=O)NCC(=O)N[C@@H](CCCNC(=N)N)C(=O)NCC(=O)O)C(C)C` [GLP-1 peptide 4, N{Epsilon-18}-[2-[2-[2-[[2-[2-[2-[[(4S)-4-carboxy-4-[10-(4-carboxyphenoxy)-decanoylamino]butanoyl]amino]ethoxy]ethoxy]acetyl]amino]ethoxy]ethoxy]acetyl], N{Epsilon-26}-[2-[2-[2-[[2-[2-[2-[[(4S)-4-carboxy-4-[10-(4-carboxyphenoxy)decanoylamino]butanoyl]-amino]ethoxy]ethoxy]acetyl]amino]ethoxy]ethoxy]acetyl]-[Aib8,Lys18,Glu22,Arg34]-GLP-1-(7-37)-peptide] (H-H[Aib]EGTFTSDVSK([AEEA-AEEA-γGlu-Decanoyl(10-(4-HOOC-PhO))])YLEEQAAK([AEEA-AEEA-γGlu-Decanoyl(10-(4-HOOC-PhO))])EFIAWLVRGRG-OH), the Papp A→B under setting [1] is 0.529 ×10⁻⁶ cm/s and the Papp A→B under setting [2] is 0.204 ×10⁻⁶ cm/s.
